“And” between values parts separate entries of the source, which are not always exact repeats. Equal entries are not always repeated.
Tests used:
WGR domain of PARP2 [1] = target: T1, WGR domain of PARP2 (Homo sapiens, UniProt Q9UGN5); experiment: Tryptophan fluorescence spectroscopy of the WGR domain titrated with divalent cations (one site binding fit); details: for fluorescence intensity (Fig 3d): listed as Zn
T1 construct: WGR domain of PARP2 (residues 77–220) into pET-15b-TEV expression vector; 6xHis (pET-15b-TEV) (N, cleaved yes); made in house; host or cells: Escherichia coli Rosetta2 (DE3) pLysS
T1 sequence (Q9UGN5 77-220): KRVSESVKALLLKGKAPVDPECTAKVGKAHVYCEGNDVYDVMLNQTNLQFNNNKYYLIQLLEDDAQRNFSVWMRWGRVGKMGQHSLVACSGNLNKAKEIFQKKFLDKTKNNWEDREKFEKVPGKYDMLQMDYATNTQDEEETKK
Experimental: Fluorescence spectra of Trp residues were measured in the 300–450 nm spectral range at the 270 nm excitation wavelengths using the Cary Eclipse spectrofluorometer (Varian/Agilent, USA).
Fluorescence of WGR domain was measured at 0.5 or 5 µM in a buffer containing 10 mM HEPES (pH 8.0), 150 mM NaCl and 0.73 or 7.3 µM EDTA, respectively. Solutions were complemented with ZnCl2 (0.2–308 µM) or MgCl2 (15–5000 µM), or CaCl2 (8–5000 µM) dissolved in a buffer containing 10 mM HEPES (pH 8.0), 150 mM NaCl. Intensity of the measured spectra was corrected for the concomitant dilution of the WGR domain. Integral intensities (Ifl.) of fluorescence spectra were averaged over three independent measurements (mean ± SEM) and used to plot the corresponding Ifl. vs. ion concentration graphs. Data were fitted with the one site binding equation:2 [drawing 2]
Where C is the concentration of divalent cations, Kd is a dissociation constant of the complex, Im and Ifl0 are maximal and initial values of Ifl., respectively.

[2] = target: T2, PARP2-nucleosome complexes (Mus musculus, UniProt O88554); experiment: spFRET microscopy in solution of nucleosomes and PARP2-nucleosome complexes; details: for EPR centre of the structural state of nucleosomes: PARP2 plus 0.3 mM Zn2+
T2 construct: Recombinant mouse full-length PARP2 was obtained in the baculovirus expression system; made in house; host or cells: PARP2: Sf9 insect cells (baculovirus), gift of Prof; O. Lavrik; nucleosomes assembled in house
Experimental: In the study of nucleosome-PARP2 interactions, nucleosomes (1-2 nM) were incubated with PARP2 (12.5-200 nM) in buffer A (50 mM Tris-HCl pH 7.5; 40 mM NaCl; 0.5 mM β-mercaptoethanol (β-ME); 0.1% NP40) at 25 °C for 30 min. When indicated, buffer A was supplemented with 50 μM - 5 mM ZnCl2, 5 mM CaCl2 or 5 mM MgCl2. […] […] measurements in solution were performed as described previously. Each measured single nucleosome was characterized by FRET between Cy3 and Cy5 labels calculated as a proximity ratio (EPR):1 [drawing 1] Where I3 and I5 are fluorescence intensities of Cy3 and Cy5, respectively, and coefficients 0.19 and 0.81 provide correction for the spectral cross-talk between Cy3 and Cy5 detection channels. EPR is a FRET efficiency not corrected for quantum yields of labels and an instrumentation factor. Relative frequency distributions of nucleosomes by EPR values, i.e. EPR profiles, (2000-5000 nucleosomes per experiment; 3 independent experiments) were plotted and further analyzed as a superposition of several normal (Gaussian) distributions for nucleosomes or nucleosome-PARP2 complexes. Since nucleosomes tend to aggregate when PARP2 is added (especially at high concentrations), treatment of signals measured from nucleosomes and their complexes included mandatory rejection of signals from any aggregates that are clearly recognized due to their slow diffusion rate and/or abnormally high fluorescence intensity.

WGR domain of PARP2 [3] = target: T1, WGR domain of PARP2; experiment: Circular dichroism spectroscopy of the WGR domain (BeStSel secondary structure analysis); design: content of a-helix in the WGR domain / content of b-sheet in the WGR domain / content of turn in the WGR domain / content of random coil in the WGR domain: unit not given here
Experimental: CD spectra of proteins were recorded within the 190-250 nm spectral range with 0.2 nm step using Jasco-810 spectrophotometer (Jasco, Japan) and the quartz […]® cuvette of 0.1 mm thickness (Hellma, Germany. Secondary structure analysis was performed using BeStSel webserver. To improve the reliability of the analysis, the content of canonical secondary structures of various types was predicted for 3-6 independent measurements, and the values were averaged. The statistical significance of the secondary structure difference was determined using the multiple t-test.

PARP2 = PARP2 (Mus musculus, UniProt O88554); experiment: Western blot analysis of NAD+-dependent PARylation by PARP2 in PARP2-nucleosome complexes; format: biochemical; design: Recombinant mouse full-length PARP2 was obtained in the baculovirus expression system; made in house; host or cells: PARP2: Sf9 insect cells (baculovirus), gift of Prof; O. Lavrik; nucleosomes assembled in house; details: Mg2+ 5 mM or Zn2+ 0.3 mM; PARP2 100 nM, nucleosomes 3 nM, NAD+ 0-5 µM
Experimental: Probes were subjected to electrophoresis in 4–12% bis-Tris gradient gel in the NuPAGE™ MES SDS Running Buffer at 130 V. […] The membrane was incubated for 60 min in the PBS-T solution supplemented with the 5% skimmed milk. Then the membrane was incubated with mouse monoclonal antibodies 10 H followed by incubation with the secondary anti-mouse antibodies conjugated with horseradish peroxidase (Bio-Rad, Hercules, CA, USA). The washing procedure was carried out after each step of incubation. Immunodetection was performed using the Super Signal West Pico Chemiluminescent Substrate (Thermo Fisher Scientific, Waltham, MA, USA) for 3 min. The Western blot experiments were performed in three independent repetitions.

[4] = 0.5 mM ion, independent measurements

Zn2+ concentration at which changes in the fluorescence of Trp residues of the WGR domain were observed (WGR domain of PARP2 [1]; Figure S4): 0.4 to 5 µM | Kd (WGR domain of PARP2 [1]; Trp fluorescence, one site binding fit, 10 mM HEPES pH 8.0, 150 mM NaCl, residual EDTA present, read-out: dissociation constant of the divalent cation-WGR domain complex): 2000 nM and ~2000 nM | effect of ions on intensity of tryptophan fluorescence of the WGR domain (WGR domain of PARP2 [1]; WGR domain 5 µM): considerably increased | fluorescence intensity (Fig 3d) (WGR domain of PARP2 [1]; wavelength 330.000, 5.9 uM Zn): 64.607 and 70.927 and 88.925 and 69.072 | fluorescence intensity (Fig 3d) (WGR domain of PARP2 [1]; wavelength 330.000, 303 uM + 7 mM EDTA): 42.022 and 51.928 and 42.125 and 50.264 | fluorescence intensity (Fig 3d) (WGR domain of PARP2 [1]; wavelength 331.070, 5.9 uM Zn): 65.518 and 73.717 and 91.313 and 71.214 | fluorescence intensity (Fig 3d) (WGR domain of PARP2 [1]; wavelength 331.070, 303 uM + 7 mM EDTA): 42.915 and 54.693 and 43.072 and 51.479 | fluorescence intensity (Fig 3d) (WGR domain of PARP2 [1]; wavelength 332.000, 5.9 uM Zn): 66.418 and 75.386 and 92.296 and 72.347 | fluorescence intensity (Fig 3d) (WGR domain of PARP2 [1]; wavelength 332.000, 303 uM + 7 mM EDTA): 43.600 and 54.088 and 43.890 and 52.288 | fluorescence intensity (Fig 3d) (WGR domain of PARP2 [1]; wavelength 333.070, 5.9 uM Zn): 68.103 and 76.819 and 93.790 and 71.930 | fluorescence intensity (Fig 3d) (WGR domain of PARP2 [1]; wavelength 333.070, 303 uM + 7 mM EDTA): 43.562 and 54.895 and 44.695 and 52.661 | fluorescence intensity (Fig 3d) (WGR domain of PARP2 [1]; wavelength 334.000, 5.9 uM Zn): 68.621 and 78.226 | fluorescence intensity (Fig 3d) (WGR domain of PARP2 [1]; wavelength 334.000, 11.6 uM Zn): 126.789 and 111.115 | effect of ions on the nucleosome structure ([2]; NP nucleosomes without PARP2, 5 mM ions): minimally affect | EPR centre of the new peak in the EPR profile ([2]; NP nucleosomes, PARP2 plus Zn2+): 0.4 | EPR centre of the structural state of nucleosomes ([2]; Nd nucleosomes): 0.5 | EPR centre of the structural state of nucleosomes ([2]; Nm nucleosomes): 0.4 | Zn2+ concentration above which the structure of PARP2-nucleosome complexes is affected ([2]; PARP2 50 nM, NP nucleosomes): higher than 75 µM | Zn2+ concentration at which all the complexes are converted to the altered conformation ([2]; PARP2 50 nM, NP nucleosomes): 150 µM | effect of Zn2+ on the affinity of PARP2 to nucleosomes ([2]; compared with EMSA in the absence of Zn2+): not significantly affected | effect of ions on the structure of the WGR domain (CD) (WGR domain of PARP2 [3]): significantly changes | content of b-sheet in the WGR domain (WGR domain of PARP2 [3]; [4]): 26.6 and 28 and 25.5 and 34.1 and 29.7 | content of random coil in the WGR domain (WGR domain of PARP2 [3]; [4]): 48.2 and 46 and 53.4 and 46.2 | content of turn in the WGR domain (WGR domain of PARP2 [3]; [4]): 15.4 and 13.9 and 14.7 and 15.1 and 13.3 | effect of ions on efficiency of PARP2-mediated PARylation (PARP2): decrease
Compound: [Cl-].[Cl-].[Zn+2] [Zn2+, ZnCl2]
fluorescence intensity (Fig 3d) (WGR domain of PARP2 [1]; wavelength 330.000, 11.6 uM Zn): 118.714 and 102.531 and 101.352 and 109.279 | fluorescence intensity (Fig 3d) (WGR domain of PARP2 [1]; wavelength 330.000, 17.2 uM): 125.078 and 114.327 and 116.086 and 114.151 | fluorescence intensity (Fig 3d) (WGR domain of PARP2 [1]; wavelength 330.000, 22.1 uM): 125.812 and 115.097 and 117.722 and 114.227 | fluorescence intensity (Fig 3d) (WGR domain of PARP2 [1]; wavelength 330.000, 308 uM): 125.859 and 119.818 and 119.168 and 117.804 | fluorescence intensity (Fig 3d) (WGR domain of PARP2 [1]; wavelength 331.070, 11.6 uM Zn): 121.141 and 105.018 and 103.680 and 111.886 | fluorescence intensity (Fig 3d) (WGR domain of PARP2 [1]; wavelength 331.070, 17.2 uM): 128.785 and 116.958 and 116.866 and 116.180 | fluorescence intensity (Fig 3d) (WGR domain of PARP2 [1]; wavelength 331.070, 22.1 uM): 127.402 and 115.749 and 117.457 and 117.342 | fluorescence intensity (Fig 3d) (WGR domain of PARP2 [1]; wavelength 331.070, 308 uM): 129.366 and 122.539 and 123.005 and 119.729 | fluorescence intensity (Fig 3d) (WGR domain of PARP2 [1]; wavelength 332.000, 11.6 uM Zn): 123.485 and 106.394 and 106.147 and 113.513 | fluorescence intensity (Fig 3d) (WGR domain of PARP2 [1]; wavelength 332.000, 17.2 uM): 128.874 and 118.064 and 118.851 and 118.214 | fluorescence intensity (Fig 3d) (WGR domain of PARP2 [1]; wavelength 332.000, 22.1 uM): 131.124 and 117.614 and 119.985 and 119.070 | fluorescence intensity (Fig 3d) (WGR domain of PARP2 [1]; wavelength 332.000, 308 uM): 130.593 and 122.360 and 123.201 and 121.123 | fluorescence intensity (Fig 3d) (WGR domain of PARP2 [1]; wavelength 333.070, 11.6 uM Zn): 125.333 and 108.991 and 107.827 and 116.743 | fluorescence intensity (Fig 3d) (WGR domain of PARP2 [1]; wavelength 333.070, 17.2 uM): 132.720 and 120.694 and 121.118 and 119.035 | fluorescence intensity (Fig 3d) (WGR domain of PARP2 [1]; wavelength 333.070, 22.1 uM): 132.619 and 121.520 and 120.252 and 122.459 | fluorescence intensity (Fig 3d) (WGR domain of PARP2 [1]; wavelength 333.070, 308 uM): 133.279 and 127.119 and 125.798 and 122.486 | effect of ions on the structure of nucleosomes in PARP2-nucleosome complexes ([2]; PARP2 50 nM, Zn2+ 0.3 mM, Ca2+ 5 mM or Mg2+ 5 mM): induce alterations in the structure of PARP2-nucleosome complexes

Reference: PMC12209172, “Poly(ADP-ribose)polymerase 2 is zinc-dependent enzyme and nucleosome reorganizer” (Cellular and Molecular Life Sciences: CMLS, 2025)
